Like-named read-outs stand apart in the source and are kept apart here.
What was measured:
HCT116 MTAP^−/− cells = assay: Cell proliferation inhibition test (Cell-Titer Glo), HCT116 MTAP−/−; format: cell-based, human; settings: Homo sapiens, HCT-116, 144 h, 6 days, read-out: HCT116 MTAP−/− Antiproliferative activity IC50
Protocol: (§1) Test Example 3. Cell Proliferation Inhibition Test of Human Colon Cancer HCT116 WT Cells and HCT116 MTAP-1-Cells
(§2) The brief introduction of the test principle: After the test MAT2A inhibitor was incubated with cancer cells for a period of time, the effect of the test compound on cell proliferation was measured using a cell proliferation count method based on the ATP content.
(§3) Reference: The experiment referred to the method disclosed in patent WO2018045071.
(§4) Material and cell: HCT116 WT cells and HCT116 MTAP^−/− cells were purchased from KYinno; fetal bovine serum, McCoy's 5a culture medium, and penicillin-streptomycin were purchased from Gibco Company (U.S.), 96-well plates were purchased from Corning Company (U.S.), and the Cell-Titer Glo reagent was purchased from Promega Company (U.S.).
(§5) Cell culture: HCT116 WT cells and HCT116 MTAP^−/− cells were cultured with a McCoy's 5a medium containing 10% fetal bovine serum+1% penicillin-streptomycin at 37° C. with 5% CO2.
(§6) Cells at logarithmic growth phase were available for the experiment.
(§7) Cell proliferation activity test: The Cell-Titer Glo reagent was used to test the compound for inhibitory activity on proliferation of both HCT116 WT and HCT116 MTAP^−/− cell strains. The cells were adjusted to a concentration of 400 cells per well, seeded on a 96-well plate, and incubated overnight at 37° C. with 5% CO2.
(§8) In the experimental group, the test compound was diluted sequentially with DMSO and a culture medium, and transferred to a cell plate at a final concentration of 10 μM, 3-fold dilution. The cells were continuously cultured at 37° C. with 5% CO2 for 6 days. The Cell-Titer Glo reagent was added and the cell activity was measured.
(§9) A negative control group and a positive control group were respectively used as Bottom and Top. The negative control group was not added with cells, only added with the culture medium in the same volume, and other operations were consistent with those of the experimental group. The positive control group was not added with the test compound, only added with DMSO in the same volume, and other operations were consistent with those of the experimental group.
(§10) The % Compound inhibition was calculated and fitted to give the IC50 of the compound.
(§11) % Compound inhibition=1-100%×(Signal−Bottom)/(Top−Bottom).
(§12) Signal referred to the signal value of the experimental group, Bottom referred to the average signal value of the negative control group, and Top referred to the average signal value of the positive control group.
(§13) HCT116 MTAP^−/− cells are cells not expressing MTAP protein obtained by site-directed knockout of wild type HCT116 (HCT116 WT) cells by gene knockout. Synthetic lethality will occur due to MAT2A inhibition and the deletion of MTAP, thereby causing tumor cell death. The activity and selectivity of the MAT2A inhibitor can be evaluated by testing the antiproliferative activity of the MAT2A inhibitor on human colon cancer HCT116 MTAP^−/− cells and human colon cancer HCT116 WT.

MAT2A = MAT2A (Homo sapiens (Human), UniProt P31153); assay: MAT2A biochemical test (inorganic phosphate colorimetric, PiColorLock); settings: read-out: MAT2A inhibitory Activity IC50
How it was run: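 Compounds tested from 10 μM top concentration in 3-fold dilutions, preincubated 120 min at room temperature with MAT2A ([…] final) in Tris/KCl/MgCl2/EDTA/BSA buffer. Reaction started with […] L-methionine and 400 μM ATP, run 90 min at room temperature; phosphate read by PiColorLock after 30 min. IC50 fitted from % inhibition versus no-enzyme and DMSO controls.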

HCT116 WT cells = assay: Cell proliferation inhibition test (Cell-Titer Glo), HCT116 WT; format: cell-based, human; settings: Homo sapiens, HCT-116, 144 h, 6 days, read-out: HCT116 WT Antiproliferative activity IC50
Protocol: as §1, §2, §3, §4, §5, §6, §7, §8, §9, §10, §11, §12, §13

Chain of MAT2A (P31153 whole entry): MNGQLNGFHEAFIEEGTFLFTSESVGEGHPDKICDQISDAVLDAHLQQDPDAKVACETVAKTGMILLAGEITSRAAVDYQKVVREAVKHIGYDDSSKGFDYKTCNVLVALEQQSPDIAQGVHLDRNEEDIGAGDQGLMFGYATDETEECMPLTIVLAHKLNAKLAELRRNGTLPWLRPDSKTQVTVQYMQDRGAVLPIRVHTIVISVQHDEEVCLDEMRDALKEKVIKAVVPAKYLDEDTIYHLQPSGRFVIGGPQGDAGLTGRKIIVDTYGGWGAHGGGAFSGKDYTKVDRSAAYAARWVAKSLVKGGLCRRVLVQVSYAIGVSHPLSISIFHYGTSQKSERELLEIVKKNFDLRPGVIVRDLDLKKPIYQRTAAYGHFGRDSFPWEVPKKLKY

Structure (SMILES)	IC50 (MAT2A; numeric values)	IC50 (HCT116 MTAP^−/− cells)	IC50 (MAT2A; class symbols)	IC50 (HCT116 WT cells)
O=c1c2[nH]ncc2c2ccc(C(F)(F)F)nc2n1-c1ccccc1Cl [Compound 6, 5-(2-chlorophenyl)-7-(trifluoromethyl)-3,5-dihydro-4H-pyrazolo[3,4-c][1,8]naphthyridin-4-one]	50.1 nM	288 nM	< 100 nM	1110 nM
O=c1c2ncoc2c2ccc(C(F)(F)F)nc2n1-c1cccc(F)c1Cl [Compound 35, 5-(2-chloro-3-fluorophenyl)-7-(trifluoromethyl)oxazolo[4,5-c][1,8]naphthyridin-4(5H)-one]	49 nM	238 nM	< 100 nM	1210 nM
[2H]C([2H])([2H])n1cnc2c(=O)n(-c3cccc(F)c3Cl)c3nc(C(F)(F)F)ccc3c21 [Compound 44, 5-(2-chloro-3-fluorophenyl)-1-(methyl-d3)-7-(trifluoromethyl)-1,5-dihydro-4H-imidazo[4,5-c][1,8]naphthyridin-4-one]	49.5 nM	71.5 nM	< 100 nM	667 nM
Cn1cnc2c(=O)n(-c3cccnc3)c3nc(C(F)(F)F)ccc3c21 [Compound 64, 1-methyl-5-(pyridin-3-yl)-7-(trifluoromethyl)-1,5-dihydro-4H-imidazo[4,5-c][1,8]naphthyridin-4-one]	–	398 nM	< 100 nM	1050 nM
[2H]C([2H])([2H])n1cnc2c(=O)n(-c3cccnc3C)c3nc(C(F)(F)F)ccc3c21 [Compound 72, 1-(methyl-d3)-5-(2-methylpyridin-3-yl)-7-(trifluoromethyl)-1,5-dihydro-4H-imidazo[4,5-c][1,8]naphthyridin-4-one]	52.1 nM	191 nM	< 100 nM	970 nM

More lines, main results first:

IC50 (MAT2A; numeric values)	Structure (SMILES)	IC50 (HCT116 MTAP^−/− cells)	IC50 (MAT2A; class symbols)	IC50 (HCT116 WT cells)
41.6 nM	COc1nc2c(=O)n(-c3ccccc3Cl)c3nc(C(F)(F)F)ccc3c2[nH]1 [Compound 5, 5-(2-chlorophenyl)-2-methoxy-7-(trifluoromethyl)-1,5-dihydro-4H-imidazo[4,5-c][1,8]naphthyridin-4-one]	274 nM	< 100 nM	> 10000 nM
29.6 nM	O=c1c2nc(C(F)(F)F)[nH]c2c2ccc(C(F)(F)F)nc2n1-c1ccccc1Cl [Compound 9, 5-(2-chlorophenyl)-2,7-bis(trifluoromethyl)-1,5-dihydro-4H-imidazo[4,5-c][1,8]naphthyridin-4-one]	426 nM	< 100 nM	4180 nM
82 nM	Cc1ccc2c3c(ncn3C)c(=O)n(-c3cccc(F)c3Cl)c2n1 [Compound 38, 5-(2-chloro-3-fluorophenyl)-1,7-dimethyl-1,5-dihydro-4H-imidazo[4,5-c][1,8]naphthyridin-4-one]	130 nM	< 100 nM	605 nM
78.3 nM	Cn1cnc2c(=O)n(-c3cccc(F)c3Cl)c3nc(C(F)(F)F)ncc3c21 [Compound 65, 5-(2-chloro-3-fluorophenyl)-1-methyl-7-(trifluoromethyl)-1,5-dihydro-4H-imidazo[4′,5′:4,5]pyrido[2,3-d]pyrimidin-4-one]	188 nM	< 100 nM	859 nM
53.5 nM	COc1ncccc1-n1c(=O)c2ncn(C)c2c2ccc(C(F)(F)F)nc21 [Compound 68, 5-(2-methoxypyridin-3-yl)-1-methyl-7-(trifluoromethyl)-1,5-dihydro-4H-imidazo[4,5-c][1,8]naphthyridin-4-one]	394 nM	< 100 nM	> 10000 nM

— patent US20240124454A1, “TRICYCLIC COMPOUND AND USE THEREOF” (NANJING ZAIMING PHARMACEUTICAL CO., LTD., priority 2020, published 2024)
